# Experimental data: patent publication US4336389A, “2-Substituted-4-aryl-5-thiazolecarboxylic acids and their derivatives as safening agents” (Monsanto Company, priority 1978, dated 1982)
# Where a name gives a salt, the structure may show the parent alone.
# How the values were obtained:
# Type in all cases: in vivo
# Barnyard Grass [1] = test: Inhibition of barnyard grass, safening agent and butachlor applied to soil surface, flooded pots (Example 18, Table IV); details: ~21 days, mean of two replicates
# Procedure: (§1) 5.08 cm. of a good grade of top soil is placed in a 7.62 cm. deep plastic pot. A predetermined number of barnyard grass seeds are applied to the soil surface. A measured quantity of the safening agent and butachlor dispersed or dissolved in a suitable carrier is applied to the soil surface. Pre-soaked rice is seeded into the pots that were previously flooded with water. The water level is lowered below the soil surface for one week. The pots are flooded just above the soil surface for the duration of the test. The plants are observed at the end of approximately 21 days and the results in terms of percent inhibition recorded. For each test, pots are prepared containing soil treated only with butachlor. For each test, pots are prepared containing soil treated only with the safening agent. Pots are also prepared with untreated soil.
# rice [2] = test: Inhibition of rice, safening agent and butachlor applied to soil surface, flooded pots (Example 18, Table IV); details: ~21 days, mean of two replicates
# Procedure: as §1
# rice [3] = test: Safening effect against butachlor injury to pre-soaked rice, soil surface application, flooded pots (Example 16, Table II); set-up: key: herbicide injury alone + safener injury alone (max 100) minus combined injury; details: safening agent 0.56 kg/h, ~21 days, mean of two replicates
# Procedure: (§2) A good grade of top soil is placed in a container and compacted to a depth of approximately 1.27 cm. from the top of said container. A predetermined number of rice seeds to be tested are placed on top of the soil. A quantity of soil sufficient to substantially fill the container is measured and placed in a second container. A measured quantity of the safening agent dispersed or dissolved in a suitable carrier is applied to the soil in the second container. A measured quantity of butachlor dispersed or dissolved in a suitable carrier is then sprayed on the soil already treated with the safening agent. The soil containing the safening agent and herbicide is thoroughly mixed. This mixing is sometimes referred to as incorporation of the herbicide and safening agent into the soil. The mixing or incorporation provides a substantially uniform distribution of the safening agent and herbicide throughout the soil. The seeds are covered with the soil containing the safening agent and herbicide and the pans are leveled. The pans are then placed on a sand bench in the greenhouse and watered from below as needed. The plants are observed at the end of approximately 21 days and the results in terms of percent inhibition of each seed lot are recorded. For each test series a pan of plants is also prepared containing no herbicide and no safening agent as a control. Additionally, for each test, a pan of plants is prepared with soil covering the seed containing no herbicide and only the measured amount of safening agent being incorporated into the soil covering the seeds to ascertain any herbicidal effect of the safening agent alone. For each series of tests the herbicidal effect of the herbicide is observed from pans of plants treated with the same quantity of herbicide alone. The "safening effect" is determined by adding the hericidal effect of the herbicide when applied alone to the herbicidal effect of the safening agent when applied alone (in no instance, however, will this sum be greater than 100) and substracting from that the herbicidal effect obtained when the herbicide and safening agent are incorporated into the soil as discussed above.
# A good grade of top soil is placed in a plastic pot. A measured quantity of the safening agent dispersed or dissolved in a suitable carrier is sprayed on the soil surface. A measured quantity of butachlor herbicide dissolved in a solvent is sprayed on the soil surface. Presoaked rice is seeded into the pots that were previously flooded with water and the water level lowered below the soil surface for one week. The pots are flooded at least up to the soil surface for the duration of the test. The plants are observed at the end of approximately 21 days and the results in terms of the percent inhibition of rice is recorded. As in Example 15, for each test pots are prepared containing soil treated only with butachlor. For each test, pots are also prepared containing soil treated only with the safening agent. Pots are also prepared in which the soil is not treated with either the herbicide or the safening agent. The safening effect is determined in accordance with Example 15.
# Table II summarizes the results obtained when the compounds of the invention were tested in accordance with the procedure of Example 16.
# rice [4] = test: Safening effect against butachlor injury to rice, safening agent and herbicide incorporated in soil (Example 15, Table I); set-up: key: herbicide-alone + safener-alone effect (max 100) minus combined effect; details: safening agent 8.96 kg/h, ~21 days
# Procedure: as §2
# Table I summarizes the results obtained when the compounds of the invention were tested in accordance with the procedure of Example 15.
# Barnyard Grass [5] = test: Inhibition of barnyard grass by butachlor and safening agent sprayed on soil surface, flooded pots (Example 17, Table III); details: ~21 days, mean of two replicates
# Procedure: as §1, with “agent” for “agent and butachlor”, “is sprayed on the soil surface. A measured quantity of butachlor herbicide dissolved in a solvent is sprayed on” for “is applied to”, “one week to allow barnyard grass to emerge.” for “one week.”, “prepared containing” for “prepared with”
# rice [6] = test: Inhibition of rice by butachlor and safening agent sprayed on soil surface, flooded pots (Example 17, Table III); details: ~21 days, mean of two replicates
# Procedure: as §1, with “agent” for “agent and butachlor”, “is sprayed on the soil surface. A measured quantity of butachlor herbicide dissolved in a solvent is sprayed on” for “is applied to”, “one week to allow barnyard grass to emerge.” for “one week.”, “prepared containing” for “prepared with”
# [7] = safening agent 1.12 kg/h + butachlor 0.07 kg/h
# [8] = safening agent 1.12 kg/h + butachlor 0.28 kg/h
# [9] = safening agent 1.12 kg/h + butachlor 1.12 kg/h
# [10] = safening agent 0.07 kg/h + butachlor 0.07 kg/h
# [11] = safening agent 0.07 kg/h + butachlor 0.28 kg/h
# [12] = safening agent 0.07 kg/h + butachlor 1.12 kg/h
# [13] = safening agent 0.28 kg/h + butachlor 0.07 kg/h
# [14] = safening agent 0.28 kg/h + butachlor 0.28 kg/h
# [15] = safening agent 0.28 kg/h + butachlor 1.12 kg/h
compound,measurement,setting,value
"CCOC(=O)c1sc(Oc2ccc(Cl)cc2Cl)nc1-c1ccccc1 [Ethyl 2-(2',4'-dichlorophenoxy)-4-phenyl-5-thiazolecarboxylate]","% Inhibition, Barnyard Grass",Barnyard Grass [1]; [7],83%
same,"% Inhibition, Barnyard Grass",Barnyard Grass [1]; [8],98%
same,"% Inhibition, Barnyard Grass",Barnyard Grass [1]; [9],100%
same,"% Inhibition, Barnyard Grass",Barnyard Grass [1]; safening agent alone 1.12 kg/h,0%
same,"% Inhibition, Rice",rice [2]; [7],15%
same,"% Inhibition, Rice",rice [2]; [8],88%
same,"% Inhibition, Rice",rice [2]; [9],99%
same,"% Inhibition, Rice",rice [2]; safening agent alone 1.12 kg/h,0%
"CCOC(=O)c1sc(Cl)nc1-c1cccc(C(F)(F)F)c1 [Example 2, Ethyl 2-Chloro-4-m-Trifluoromethylphenyl-5-thiazolecarboxylate]",Safening Effect,rice [3]; butachlor 0.07 kg/h,68
same,Safening Effect,rice [3]; butachlor 0.28 kg/h,26
same,Safening Effect,rice [3]; butachlor 1.12 kg/h,* (Safening effect between 0 and 20)
same,Safening Effect,rice [4]; butachlor 4.48 kg/h,50
"CCOC(=O)c1sc(Cl)nc1-c1ccc(F)cc1 [Example 3, Ethyl 2-Chloro-4-(p-Fluorophenyl)-5-Thiazolecarboxylate]","Inhibition, Barnyard Grass",Barnyard Grass [5]; [10],97%
same,"Inhibition, Barnyard Grass",Barnyard Grass [5]; [11],99%
same,"Inhibition, Barnyard Grass",Barnyard Grass [5]; [12],100%
same,"Inhibition, Barnyard Grass",Barnyard Grass [5]; [13],92%
same,"Inhibition, Barnyard Grass",Barnyard Grass [5]; [14],100%
same,"Inhibition, Barnyard Grass",Barnyard Grass [5]; [15],100%
same,"Inhibition, Barnyard Grass",Barnyard Grass [5]; [7],92%
same,"Inhibition, Barnyard Grass",Barnyard Grass [5]; [8],100%
same,"Inhibition, Barnyard Grass",Barnyard Grass [5]; [9],100%
same,"Inhibition, Barnyard Grass",Barnyard Grass [5]; safening agent alone 0.07 kg/h,0%
same,"Inhibition, Barnyard Grass",Barnyard Grass [5]; safening agent alone 0.28 kg/h,0%
same,"Inhibition, Barnyard Grass",Barnyard Grass [5]; safening agent alone 1.12 kg/h,0%
same,"Inhibition, Rice",rice [6]; [10],0%
same,"Inhibition, Rice",rice [6]; [11],5%
same,"Inhibition, Rice",rice [6]; [12],70%
same,"Inhibition, Rice",rice [6]; [13],0%
same,"Inhibition, Rice",rice [6]; [14],5%
same,"Inhibition, Rice",rice [6]; [15],58%
same,"Inhibition, Rice",rice [6]; [7],0%
same,"Inhibition, Rice",rice [6]; [8],0%
same,"Inhibition, Rice",rice [6]; [9],43%
same,"Inhibition, Rice",rice [6]; safening agent alone 0.07 kg/h,0%
same,"Inhibition, Rice",rice [6]; safening agent alone 0.28 kg/h,0%
same,"Inhibition, Rice",rice [6]; safening agent alone 1.12 kg/h,0%
same,Safening Effect,rice [3]; butachlor 0.07 kg/h,30
same,Safening Effect,rice [3]; butachlor 0.28 kg/h,73
same,Safening Effect,rice [3]; butachlor 1.12 kg/h,62
same,Safening Effect,rice [4]; butachlor 6.72 kg/h,65
"CCOC(=O)c1sc(Cl)nc1-c1ccccc1Cl [Example 5, Ethyl 2-Chloro-4-(o-Chlorophenyl)-5-Thiazolecarboxylate]",Safening Effect,rice [4]; butachlor 6.72 kg/h,65
"CCOC(=O)c1sc(Cl)nc1-c1cccc(C)c1 [Example 6, Ethyl 2-Chloro-4-(m-Tolyl)-5-Thiazolecarboxylate]",Safening Effect,rice [4]; butachlor 6.72 kg/h,65
"CCOC(=O)c1sc(Cl)nc1-c1ccc([N+](=O)[O-])cc1 [Example 7, Ethyl 2-Chloro-4-(p-Nitrophenyl)-5Thiazolecarboxylate]",Safening Effect,rice [3]; butachlor 0.07 kg/h,* (Safening effect between 0 and 20)
same,Safening Effect,rice [3]; butachlor 0.28 kg/h,38
same,Safening Effect,rice [3]; butachlor 1.12 kg/h,* (Safening effect between 0 and 20)
same,Safening Effect,rice [4]; butachlor 4.48 kg/h,25
"CCOC(=O)c1sc(OCC)nc1-c1ccccc1 [Example 8, Ethyl 2-Ethoxy-4-Phenyl-5-Thiazolecarboxylate]","% Inhibition, Barnyard Grass",Barnyard Grass [1]; [7],100%
same,"% Inhibition, Barnyard Grass",Barnyard Grass [1]; [8],100%
same,"% Inhibition, Barnyard Grass",Barnyard Grass [1]; [9],100%
same,"% Inhibition, Barnyard Grass",Barnyard Grass [1]; safening agent alone 1.12 kg/h,0%
same,Safening Effect,rice [4]; butachlor 4.48 kg/h,75
same,"% Inhibition, Rice",rice [2]; [7],30%
same,"% Inhibition, Rice",rice [2]; [8],88%
same,"% Inhibition, Rice",rice [2]; [9],95%
same,"% Inhibition, Rice",rice [2]; safening agent alone 1.12 kg/h,0%
"CCOC(=O)c1sc(OCC)nc1-c1cccc(C(F)(F)F)c1 [Example 9, Ethyl 2-Ethoxy-4-(m-Trifluoromethylphenyl)-5-Thiazolecarboxylate]",Safening Effect,rice [4]; butachlor 4.48 kg/h,20
"CCOC(=O)c1sc(Oc2ccc(Cl)cc2Cl)nc1-c1cccc(C(F)(F)F)c1 [Example 10, Ethyl 2-(2',4'-Dichlorophenoxy)-4-(m-Trifluoromethylphenyl)-5-Thiazolecarboxylate]",Safening Effect,rice [3]; butachlor 0.07 kg/h,* (Safening effect between 0 and 20)
same,Safening Effect,rice [3]; butachlor 0.28 kg/h,* (Safening effect between 0 and 20)
same,Safening Effect,rice [3]; butachlor 1.12 kg/h,* (Safening effect between 0 and 20)
same,Safening Effect,rice [4]; butachlor 4.48 kg/h,43
"O=C(O)c1sc(Cl)nc1-c1ccccc1 [Example 11, 2-Chloro-4-Phenyl-5-Thiazolecarboxylic Acid]",Safening Effect,rice [3]; butachlor 0.07 kg/h,* (Safening effect between 0 and 20)
same,Safening Effect,rice [3]; butachlor 0.28 kg/h,63
same,Safening Effect,rice [3]; butachlor 1.12 kg/h,45
same,Safening Effect,rice [4]; butachlor 4.48 kg/h,50
"O=C(Cl)c1sc(Cl)nc1-c1ccccc1 [Example 12, 2-Chloro-4-Phenyl-5-Thiazolecarbonyl Chloride]",Safening Effect,rice [3]; butachlor 0.07 kg/h,35
same,Safening Effect,rice [3]; butachlor 0.28 kg/h,80
same,Safening Effect,rice [3]; butachlor 1.12 kg/h,62
same,Safening Effect,rice [4]; butachlor 4.48 kg/h,50
"COC(=O)c1sc(Cl)nc1-c1ccccc1 [Example 13, Methyl 2-Chloro-4-Phenyl-5-Thiazolecarboxylate]",Safening Effect,rice [4]; butachlor 4.48 kg/h,30
"CCCOC(=O)c1sc(Cl)nc1-c1ccccc1 [Example 14, n-Propyl 2-Chloro-4-Phenyl-5-Thiazolecarboxylate]",Safening Effect,rice [4]; butachlor 4.48 kg/h,20
O=C(O)c1sc(Cl)nc1-c1ccccc1 [triethanolamine salt of 2-chloro-4-phenyl-5-thiazolecarboxylic acid],"% Inhibition, Barnyard Grass",Barnyard Grass [1]; [7],88%
same,"% Inhibition, Barnyard Grass",Barnyard Grass [1]; [8],99%
same,"% Inhibition, Barnyard Grass",Barnyard Grass [1]; [9],100%
same,"% Inhibition, Barnyard Grass",Barnyard Grass [1]; safening agent alone 1.12 kg/h,0%
same,"% Inhibition, Rice",rice [2]; [7],0%
same,"% Inhibition, Rice",rice [2]; [8],20%
same,"% Inhibition, Rice",rice [2]; [9],60%
same,"% Inhibition, Rice",rice [2]; safening agent alone 1.12 kg/h,0%
